This is an account of results in paper PMC8022858, “Discovery of bone morphogenetic protein 7-derived peptide sequences that attenuate the human osteoarthritic chondrocyte phenotype” (Molecular Therapy. Methods & Clinical Development, 2021).

Experiment [1] deals with primary human OA articular chondrocytes (OA-HACs). Description: BMP7 peptide library screening, quantitative real-time PCR of OA chondrocyte phenotype genes. In kind it is cell-based. Particulars: for expression of SOX9, COL2A1, and NKX3-2 mRNA / expression of RUNX2, COL10A1, ALPL, MMP13, ADAMTS5, COX-2, and IL6 mRNA: 24 h, 1, 10, 100 or 1,000 nM peptide, normalized to 28S rRNA; for expression of SOX9, COL2A1, and NKX3-2 mRNA: relative to control (Figure 2A); for expression of RUNX2, COL10A1, ALPL, MMP13, ADAMTS5, COX-2, and IL6 mRNA: relative to control (Figures 2B, 2C); for concentration range of bioactivity / COL10A1 mRNA expression: 24 h; for concentration range of bioactivity: concentration series 1-1,000 nM; for COL10A1 mRNA expression: pool of 18 OA-HACs, 100 nM peptide, versus control (Figure 1B). An excerpt:
To investigate whether BMP7 harbors potential peptide sequences that improve the OA chondrocyte phenotype, a peptide library was designed from the mature 139 amino acid-long human BMP7 sequence (Table S2). The peptide library was designed as 20-mer peptides with 2 amino acid intervals (18 amino acid overlap) between individual peptides and with all cysteine residues substituted by serine residues to avoid uncontrolled oxidation of cysteine groups. This yielded 61 individual peptides covering the complete mature human BMP7 sequence (Figure 1A). The peptide library was screened using a pool of primary human OA articular chondrocytes (OA-HACs) from 18 individual donors. Prior to pooling, individual OA-HAC isolates were tested for their responsiveness to BMP7 (Figure S1). The screening was conducted by exposing the OA-HAC pool for 24 h to a concentration series (1, 10, 100, or 1,000 nM) of each peptide from the library. […] This is defined as reduced expression of collagen type X alpha 1 chain (COL10A1), alkaline phosphatase (ALPL), Runt-related transcription factor 2 (RUNX2), ADAMTS5, MMP13, prostaglandin-endoperoxide synthase 2 or cyclooxygenase-2 (COX-2), and interleukin 6 (IL6) and increased expression of SRY-box transcription factor 9 (SOX9), COL2A1, and NKX3-2. […] Representative peptides inducing the above gene expression characteristics in OA-HACs were selected from both regions for further investigation. These were peptide p[63−82] and p[113−132] from the library, covering amino acids 63−82 and 113−132 of the mature BMP7 amino acid sequence. The complete quantitative real-time PCR data for peptides p[63−82] and p[113−132] […] For the two candidate peptides, we validated data using an independent cohort of three OA-HACs exposed to 100 nM of p[63−82] or p[113−132] or a combination of both peptides. […] Taken together, two regions in BMP7 were identified delivering peptide sequences that are able to improve the OA chondrocyte phenotype.
Figure 1 BMP7 peptide library screening on primary human OA articular chondrocytes (OA-HACs) (A) Schematic representation of the design of the human BMP7 peptide library. (B) COL10A1 mRNA expression in samples from the library screening on a pool of 18 OA-HACs individually exposed for 24 h to the peptides (100 nM) in the library. Data are shown as compared to the control condition (white bar) and full-length BMP7 (1 nM; gray bar). The two blue bars represent candidate peptides p[63−82] and p[113−132]. […] Error bars represent mean ± SEM, and statistical significance for peptide condition or BMP7 versus control condition as determined by unpaired two-tailed Student’s t test is represented as ∗p < 0.05, ∗∗p < 0.01, and ∗∗∗p < 0.001; NS, not significant.
Figure 2 Bioactivity of BMP7-derived peptides p[63−82] and p[113−132] on OA-HACs Complete peptide library screening quantitative real-time PCR dataset for peptides p[63−82] and p[113−132] is presented. (A) SOX9, COL2A1, and NKX3-2 mRNA expression in the 18 OA-HAC pool exposed to 1,000, 100, 10, or 1 nM of peptide p[63−82] and p[113−132] is shown and presented relative to control (black bars) and alongside full-length BMP7 (white bars). (B) Similar to (A) but for chondrocyte hypertrophy-associated genes RUNX2, COL10A1, and ALPL. (C) Similar to (A) but for cartilage extracellular matrix remodeling-associated genes MMP13 and ADAMTS5 and inflammation-related genes COX-2 and IL-6. (D) Glycosaminoglycan (GAG) content (normalized to total protein content) on an independent cohort of three individual OA-HAC donors treated with 100 nM peptides p[63−82] and p[113−132] for 24 h. (E) Alkaline phosphatase (ALP) activity (normalized to total protein content) in similar samples from (D). (F) Prostaglandin E2 (PGE2) levels in culture supernatant in similar samples from (D). […]
On the technique in general: In qPCR the cycle at which signal appears reflects the starting amount.

In experiment [2] the test system is OA-HACs. Description: Duration of chondrocyte phenotype modulation, single versus multiple peptide addition, 10-day follow-up. The note with it: 100 nM; for COL10A1 gene expression, continuous exposure / inhibition of MMP13 and COX-2 expression, continuous exposure / COL2A1 mRNA expression, continuous exposure / inhibition of COL10A1, MMP13, and COX-2 gene expression after single dose, up to and including day / expression of COL10A1, MMP13, and COX-2 at day 10, single dose / timing of action on COL2A1 after single dose: OA-HAC pool (n = 3 donors); for COL10A1 gene expression, continuous exposure / inhibition of MMP13 and COX-2 expression, continuous exposure: multiple addition; for COL10A1 gene expression, continuous exposure: 10 days (Figure 4B); for inhibition of MMP13 and COX-2 expression, continuous exposure: 10 days (Figures 4C, 4D); for COL2A1 mRNA expression, continuous exposure: peptide added every other day (multiple), 10 days (Figure 4A); for inhibition of COL10A1, MMP13, and COX-2 gene expression after single dose, up to and including day: single dose at start, sampled every 2 days; for timing of action on COL2A1 after single dose: compared with timing for COL10A1, MMP13, COX-2; for detectable changes in chondrocyte gene expression phenotype after a single exposure: OA-HAC pool. The format is cell-based, human. The protocol: The duration of chondrocyte phenotypic change induced by candidate peptides p[63−82] and p[113−132] was determined by exposing OA-HACs to a single dose of peptide or continuously keeping the peptides present during OA-HAC culture. In both cases, the phenotype of the OA-HACs was analyzed every other day during a 10-day follow-up. Non-OA-HACs were used as a reference for chondrocyte phenotype status.
Figure 4 Duration of chondrocyte phenotype modulation by BMP7-derived peptides A pool of OA-HACs (n = 3 donors) was cultured in the presence or absence of 100 nM peptides p[63−82] or p[113−132] and compared to a pool of human articular chondrocytes from a non-OA source. The medium was changed every 2 days. Peptides were added at the start of the experiment and subsequently at every medium change (multiple) or only at the start of the experiment and not during every subsequent medium change (single). At days 0, 2, 4, 6, 8, and 10 in culture, samples were harvested and analyzed for the expression of the indicated mRNAs by quantitative real-time PCR (normalized for 28S rRNA expression) (A) COL2A1 mRNA expression. (B) COL10A1 mRNA expression. (C) MMP13 mRNA expression. (D) COX-2 mRNA expression. In graphs, error bars represent mean ± SEM; data are presented relative to the “control OA” condition of each time point. Statistical differences were calculated to control conditions. Error bars represent mean ± SEM, and statistical significance for peptide conditions or control non-OA versus control OA condition as determined by unpaired two-tailed Student’s t test is represented as ∗p < 0.05, ∗∗p < 0.01, and ∗∗∗p < 0.001.
For the peptide-screening and alanine-scanning experiments, cDNA was prepared using the Cells-to-Ct kit (Invitrogen) according to the manufacturer’s protocol. For the other experiments, cells or homogenized tissues (Mikro-Dismembrator; Braun Biotech International) were lysed in TRIzol (Life Technologies) and RNA isolation and cDNA synthesis were performed as described earlier.[27]^,[57] Quantitative real-time PCR was performed using Takyon qPCR Master Mix plus blue for SYBR Green (Eurogentec). A CFX96 Real-Time PCR Detection System (Bio-Rad) was used for amplification: initial denaturation 95°C for 10 min, followed by 40 cycles of amplification (denaturing 15 s at 95°C and annealing 1 min at 60°C). Data were analyzed using the standard curve method, mRNA expression was normalized to a reference gene (28S rRNA), and gene expression was calculated as fold change as compared to control conditions.

Turning to “BMP7: full-length recombinant bone morphogenetic protein 7 (R&D Systems), used at 1 nM”, the “chondrocyte COX-2, IL-6, and PGE2 levels” value in experiment [1] (full-length BMP7 1 nM, OA-HACs) is on record as “attenuation”.

With H-SVLYFDDSSNVILKKYRNMV-OH [p[113−132]], in experiment [2], the “COL10A1 gene expression, continuous exposure” value is given as “steadily decreased over time”; the “inhibition of MMP13 and COX-2 expression, continuous exposure” value is on record as “continuously observed during the treatment period”; the “COL2A1 mRNA expression, continuous exposure” value was “overtime increasing”; the “inhibition of COL10A1, MMP13, and COX-2 gene expression after single dose, up to and including day” value is “up to 8 day”. Besides, in experiment [2], the “expression of COL10A1, MMP13, and COX-2 at day 10, single dose” value is recorded as “indistinguishable from non-treated OA HACs”; the “timing of action on COL2A1 after single dose” value was “similar”; the “detectable changes in chondrocyte gene expression phenotype after a single exposure” value is on record as “up to 8 days”. Also, in experiment [1] (pool of 18 OA-HAC donors), the “expression of SOX9, COL2A1, and NKX3-2 mRNA” value is “induced”; the “expression of RUNX2, COL10A1, ALPL, MMP13, ADAMTS5, COX-2, and IL6 mRNA” value is listed as “inhibited”; the “concentration range of bioactivity” value is “low nanomolar range”. Besides, the “COL10A1 mRNA expression” value in experiment [1] was “significantly downregulated”.

Take “H-SEASPAMYYLNATANFYESG-OH [scrambled p[63−82], scrambled version of peptide p[63−82], reference compound]”: the “sequence specificity: expression of COL2A1, RUNX2, COL10A1, and COX-2” value in experiment [1] (pool of 18 OA-HAC donors, scrambled peptides 100 nM, 24 h (Figure 2G)) was “neither one of them was able to recapitulate the bioactivity”.

Consider H-AAYYSEGESAFPLNSYMNAT-OH [p[63−82]], for which, in experiment [2], the “COL10A1 gene expression, continuous exposure” value is reported as “steadily decreased over time”; the “inhibition of MMP13 and COX-2 expression, continuous exposure” value is recorded as “continuously observed during the treatment period”; the “COL2A1 mRNA expression, continuous exposure” value is on record as “overtime increasing”; the “inhibition of COL10A1, MMP13, and COX-2 gene expression after single dose, up to and including day” value is reported as “up to 8 day”. In experiment [2], the “expression of COL10A1, MMP13, and COX-2 at day 10, single dose” value is listed as “indistinguishable from non-treated OA HACs”; the “timing of action on COL2A1 after single dose” value was “not detectable anymore from day 8 onward”; the “detectable changes in chondrocyte gene expression phenotype after a single exposure” value was “up to 8 days”. Besides, in experiment [1] (pool of 18 OA-HAC donors), the “expression of SOX9, COL2A1, and NKX3-2 mRNA” value was “induced”; the “expression of RUNX2, COL10A1, ALPL, MMP13, ADAMTS5, COX-2, and IL6 mRNA” value is “inhibited”; the “concentration range of bioactivity” value is reported as “low nanomolar range”. Besides, in experiment [1], the “COL10A1 mRNA expression” value is “significantly downregulated”.
